Results from patent US10117899B2, “Delivery methods and compositions for nuclease-mediated genome engineering in hematopoietic stem cells” (Sangamo BioSciences, Inc., priority 2013, dated 2018).

What was measured:
CD34+ cells = test: Gene targeting of CD34+ cell subpopulations in culture supplemented with SR1 and/or dmPGE2; type: cell-based, human
Description: CD34+ cells were either freshly purified from human cord blood after obtaining informed consent and upon approval by the San Raffaele Hospital Bioethical Committee, or purchased frozen from Lonza. 10^6 CD34+ cells/ml were stimulated in serum-free StemSpan medium (StemCell Technologies) supplemented with penicillin, streptomycin and human early-acting cytokines (stem cell factor (SCF) 100 ng/ml, Flt3 ligand (Flt3-L) 100 ng/ml, thrombopoietin (TPO) 20 ng/ml, and interleukin 6 (IL-6) 20 ng/ml; all purchased from Peprotech) for 24 or 48 hr and then infected with IDLVs at multiplicity of infection (MOI) 100-500. The following day the cells were electroporated with 175 μg/ml ZFNs encoding mRNAs (P3 Primary Cell 4D-Nucleofector X Kit, program EO 100; Lonza). For some experiments, the following drugs were supplemented to the culture media: 1 μM SR1 (Novartis) added at every medium change, and 10 μM PGE2 (Cayman) added at the beginning of the culture, 1 hour before and just after electroporation. For CFC assays, 800 cells were plated one day after electroporation in methylcellulose-based medium (MethoCult H4434, StemCell Technologies). Two weeks after plating, colonies were counted and identified according to morphological criteria.
Because cell cycle progression is a major requirement of HDR, and activation of the more primitive progenitors may require longer stimulation, we postponed the gene targeting procedure to the third day of culture (FIG. 3C). At this time, the cells are also likely to become more permissive to LV transduction. However, since increasing times of culture lead to increased differentiation, we also tested addition of the Aryl Hydrocarbon Receptor Antagonist (StemRegenin 1, SR1) and/or 16.16 dimethyl-prostaglandin E2 (dmPGE2) to the culture medium to promote progenitor expansion in conditions that have been reported to preserve the stemness of these cells (FIG. 3D).

NSG mice = test: Transplantation of gene targeted CD34+ cells in NSG mice, engraftment of human CD45+ and GFP+ cells; type: in vivo; details: for effect on in vivo differentiation of treated cells: addition to the in vitro culture, PB 14 weeks post-transplant; for fraction of mice successfully engrafted with GFP+ cells: delayed treatment and addition of SR1 and dmPGE2 used in combination
Excerpt: For the in vivo studies, 8- to 11-week-old NOD-SCID-IL2Rg^−/− (NSG) mice were purchased from the Jackson laboratory. The experimental protocol was approved by the Institutional Animal Care and Use Committee of the San Raffaele Scientific Institute. At day 4 of culture, 3×10^5 gene targeted CD34+ cells (or 7.5×10^5 BM derived cells) were infused intravenously into the mice after sub-lethal irradiation (200 cGy).MDA3 human mammary carcinoma cell line was obtained by stable transduction of MDA-MB 231 cells with lentiviral vectors expressing the human cytokines GMCSF, IL-7 and IL-15 from the PGK promoter. 4×10^6MDA3 cells were implanted orthotopically in the mammary fat pad of NSG mice 14 weeks after CD34+ cells transplantation or in age-matched untransplanted NSG mice. Human CD45+ engraftment was followed by serial collections of blood from the mouse tail and, at the end of the experiment (12-23 weeks after transplantation), BM, spleen and thymus cells were harvested and analyzed. HumanT lymphocytes were enriched from mouse splenocytes using magnetic beads conjugated to anti human CD3 and CD28 antibodies (Dynabeads human T-activator CD3/CD28; Invitrogen), following the manufacturer instructions, and grown in Iscove's Modified Dulbecco's Media (IMDM) (GIBCO-BRL) supplemented with penicillin, streptomycin, 10% FBS and 5 ng/ml each of IL-7 and IL-15 (PeproTech).

[1] = 1 μM SR1 added to culture medium

Structure (SMILES) | effect on overall yield of GFP+ CFC and early (CD133+) progenitors (CD34+ cells; [1]) | effect on percentage of GFP+ cells within each subpopulation (CD34+ cells; [1]) | effect on targeting efficiency (CD34+ cells; SR1 treatment) | effect on the more primitive fractions in culture (CD34+ cells; SR1 treatment) | effect on in vivo differentiation of treated cells (NSG mice) | total human cell engraftment in the mice (NSG mice; after SR1 addition to the culture) | fraction of mice successfully engrafted with GFP+ cells (NSG mice) | apoptotic rate of cells treated with or without dmPGE2 (CD34+ cells) | effect on percentage of GFP+ cells in all subpopulations (CD34+ cells; dmPGE2 added to culture, additive effects with SR1)
CC(C)n1cnc2c(NCCc3ccc(O)cc3)nc(-c3csc4ccccc34)nc21 [SR1, StemRegenin 1] | increased | slightly reduced | did not significantly influence | helped maintain the more primitive fractions in culture | did not significantly affect | significantly increased | 100% | – | –
CCCCC(C)(C)[C@H](O)/C=C/[C@H]1[C@H](O)CC(=O)[C@@H]1C/C=C\CCCC(=O)O [dmPGE2, 16.16 dimethyl-prostaglandin E2] | – | – | – | – | did not significantly affect | – | 100% | did not observe significant differences | further increased
